Experimental data: EP3156398A1, “AGONISTS OF THE CHEMOKINE RECEPTOR CXCR3” (Friedrich-Alexander-Universität Erlangen-Nürnberg, priority 2015, dated 2017)

Key:
CXCR3-PK2 = molecular target: T1, CXCR3-PK2 (Homo sapiens, UniProt P49682); assay: β-arrestin 2 recruitment assay (PathHunter, DiscoveRx), CXCR3-PK2 construct; assay type: cell-based; settings: for Emax: % of CXCL11 mediated effect, read-out: CXCR3-PK2 efficacy (%) (converted); for Emax / CXCR3-PK2 pEC50 ± SEM: CXCR3-PK2; for CXCR3-PK2 pEC50 ± SEM: HEK293-T cells, PathHunter
T1 construct: expressed in transfected cells
T1 sequence (P49682 1-368): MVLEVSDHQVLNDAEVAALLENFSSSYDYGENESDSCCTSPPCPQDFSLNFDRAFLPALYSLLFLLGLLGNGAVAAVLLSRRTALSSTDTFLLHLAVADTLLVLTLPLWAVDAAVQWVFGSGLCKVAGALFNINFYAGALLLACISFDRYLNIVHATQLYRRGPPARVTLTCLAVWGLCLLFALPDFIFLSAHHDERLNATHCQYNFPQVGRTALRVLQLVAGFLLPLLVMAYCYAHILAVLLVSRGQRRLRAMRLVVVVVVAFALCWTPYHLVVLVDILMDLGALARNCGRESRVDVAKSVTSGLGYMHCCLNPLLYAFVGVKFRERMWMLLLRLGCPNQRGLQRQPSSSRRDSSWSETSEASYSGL
Description: (§1) β-arrestin 2 recruitment assay: The measurement of β-arrestin recruitment was performed utilizing the PathHunter assay purchased from DiscoveRx (DiscoveRx, Birmingham, U.K.) according to the manufacturer's protocol. HEK293 cells stably expressing β-gal enzyme acceptor were transiently transfected with the ProLink (PK1) tagged wildtype CXCR3 receptor using the TransIT-293 transfection reagent from Mirus (purchased from MoBiTec, Goettingen, Germany). The assay was carried out in 384-well plates containing 2000 cells in 20 µL. After incubation at 37°C (5% CO2, 95% relative humidity) overnight, various concentrations of test compounds or CXCL11 (prepared in PBS, pH 7.4, containing 0.20% BSA) were added and the incubation continued for 4 h. Detection mix was then added and incubated for further 60 min at room temperature. Chemiluminescence was determined with a microplate reader Clariostar (BMG labtech, Ortenberg, Germany).
(§2) The ability of the novel ligands according to the present invention to induce CXCR3-mediated β-arrestin 2 recruitment was investigated in the assay system PathHunter (DiscoveRx), which detects the recruitment of β-amestin 2 to the activated receptor using β-galactosidase (β-gal) enzyme fragment complementation. The inventors used two different ProLink tags, ProLink1 (PK1) and ProLink2 (PK2), of which PK2 has higher affinity for the enzyme acceptor to detect weak protein-protein interactions. The CXCR3-PK2 construct is readily able to detect the differences in the propensity of CXCL11 and CXCL10 to induce β-arrestin 2 recruitment at CXCR3. […] Table 3. Ability of the 46/VUF10661 based positive allosteric modulators to activate the CXCR3 as measured in the β-arrestin 2 recruitment assay (PathHunter, DiscoveRx).[a]
To investigate the efficacy of identified partial agonists in the assay format, the inventors used the CXCR3-PK2 construct, which is characterized by higher sensitivity to detect β-arrestin 2 recruitment. The compounds which appeared as weak partial agonists under CXCR3-PK1 conditions appeared as strong partial agonists under CXCR3-PK2 conditions with the efficacy increased up to 80% (Table 4). FAUC1036 reached the efficacy of 66%. […] Table 4. Ability of the compound 5 based positive allosteric modulators to activate the CXCR3 as measured in the β-arrestin 2 recruitment assay (PathHunter, DiscoveRx).[a]

CXCR3 = molecular target: T2, CXCR3 (Homo sapiens, UniProt P49682); assay: [35S]GTPγS incorporation assay; assay type: biochemical; settings: for Emax: read-out: CXCR3 Efficacy (%) ± SEM; for CXCR3 pEC50 ± SEM: mean of three experiments in triplicate
T2 construct: expressed in transfected cells; host or cells: HEK293 / HEK293T cells, stably transfected; membrane preparations
T2 sequence (P49682 1-368): T1 sequence (P49682 1-368)
Description: Membrane preparation for allosteric radioligand RAMX3 displacement and [^35S]GTPγS incorporation assays: The human embryonic kidney (HEK) cells stably expressing the human CXCR3 receptor were cultured in 150-mm cell culture plates in DMEM/F-12 supplemented with 10% fetal bovine serum (FBS), 2 mM L-glutamine, 1% penicillin-streptomycin, 300 µgmL^-1 Zeocin and incubated at 37 °C in a humid atmosphere with 5% CO2. At 100% confluency cells were washed with PBS twice, treated with Tris EDTA buffer (10 mM Tris, 0.5 mM EDTA, 5 mM KCl, 140 mM NaCl, pH 7.4), and harvested using a cell scraper. Cells were pelleted at 1100×g for 8 min at 4 °C, resuspended in Tris-EDTA-MgCl2 buffer (50mM Tris, 5 mM EDTA, 1.5 mM CaCl2, 5 mM MgCl2, 5 mM KCl, 120 mM NaCl, pH 7.4) and followed by lysis with an Ultra-Turrax. After centrifugation at 50,000•g, at 4°C for 18 min the membranes were resuspended in the binding buffer (50 mM Tris, 1 mM EDTA, 5 mM MgCl2 and subsequently homogenized with a glass-Teflon homogenizer (20 strokes). The homogenized membranes were shock-frozen in liquid nitrogen and stored at -80°C. The protein concentration was determined with the Lowry method with bovine serum albumin used as a standard.^35
[^35S]GTPγS incorporation assay: The [^35S]GTPγS incorporation assay was performed on membrane preparations of stably transfected HEK293 cells that expressed the CXCR3 receptor. The assay was carried out in 96-well plates at the final volume of 200 µL. The incubation buffer contained 20 mM HEPES, 10 mM MgCl2•6H20,100 mM NaCl and 100 mg/L saponin (pH 7.4). Membranes (30 µgmL^-1 of membrane protein), various concentrations of test compound and CXCL11, and 1 µM GDP were preincubated in the absence of [^35S]GTPγS for 30 min at 37 °C. After the addition of 0.10 nM [^35S]GTPγS membranes were incubated for additional 30 min at 37 °C. Incubation was terminated by filtration through Whatman GF/B filters soaked with ice cold PBS. The filter-bound radioactivity was measured as described above. Three to four experiments per compound were performed with each concentration in triplicate.
The activation of G proteins was explored in terms of CXCR3 mediated [^35S]GTPγS incorporation. In the [^35S]GTPγS incorporation assay the membrane preparations of HEK293T cells stably expressing CXCR3 were used. The activation of G proteins was monitored as the incorporation of [^35S]GTPγS and thus increase in the incorporated radioactivity. The potency and efficacy of the novel compounds was first compared to the reference compound 46/VUF10661. […] Table 1. The ability of the 46/VUF10661 based positive allosteric modulators to activate CXCR3 as measured in the [35S]GTPγS incorporation assay.[a]

CXCR3-PK1 = molecular target: T3, CXCR3-PK1 (Homo sapiens, UniProt P49682); assay: β-arrestin 2 recruitment assay (PathHunter, DiscoveRx), CXCR3-PK1 construct; assay type: cell-based; settings: CXCR3-PK1; for Emax: % of CXCL11 mediated effect, read-out: CXCR3-PK1 efficacy (%) (converted); for CXCR3-PK1 pEC50 ± SEM: HEK293-T cells, PathHunter, two to three experiments in triplicate
T3 construct: expressed in transfected cells; host or cells: HEK293 cells stably expressing beta-gal enzyme acceptor (PathHunter, DiscoveRx), transiently transfected
T3 sequence (P49682 1-368): T1 sequence (P49682 1-368)
Description: as §1, §2

activated T-cells = settings: cited from earlier work
[1] = % of CXCL11 mediated effect, membrane preparations of HEK293T stably expressing CXCR3
[2] = membrane preparations of HEK293T stably expressing CXCR3

| SMILES | Emax (CXCR3-PK2) [%] | CXCR3-PK2 pEC50 ± SEM (CXCR3-PK2) | Emax (CXCR3; [1]) [%] | CXCR3 pEC50 ± SEM (CXCR3; [2]) | Emax (CXCR3-PK1) [%] | CXCR3-PK1 pEC50 ± SEM (CXCR3-PK1) | β-arrestin 2 recruitment agonism using PK2 tag (result in words) (CXCR3-PK2) | CXCR3 Efficacy (%) ± SEM (CXCR3; [1]) | CXCR3 mediated G protein activation (result in words) (CXCR3; [35S]GTPγS incorporation) | influence on CXCL11 induced migration in activated T-cells (activated T-cells) |
| --- | --- | --- | --- | --- | --- | --- | --- | --- | --- | --- |
| N[C@@H](CCCCNC(=O)[C@@H]1Cc2ccccc2CN1)C(=O)NCC(c1ccccc1)c1ccccc1.O=C(O)C(F)(F)F.O=C(O)C(F)(F)F [Compound 28, (S)-3-(((S)-5-ammonio-6-((2,2-diphenylethyl)amino)-6-oxohexyl)carbamoyl)-1,2,3,4-tetrahydroisoquinolin-2-ium 2,2,2-trifluoroacetate] | 85 | 6.55±0.26 | 40 ± 7 | 5.65±0.23 | 14 | 6.80±0.45 | – | – | – | – |
| CC(C)(C)OC(=O)N[C@H](CCCCNC(=O)[C@@H]1Cc2ccccc2CN1C(=O)CCC(=O)c1ccccc1)C(=O)NCC(c1ccccc1)c1ccccc1 [Compound 34, Tert-butyl ((R)-1-((2,2-diphenylethyl)amino)-1-oxo-6-((S)-2-(4-oxo-4-phenylbutanoyl)-1,2,3,4-tetrahydroisoquinoline-3-carboxamido)hexan-2-yl)carbamate] | 88 | 6.86±0.19 | – | No effect | 16 | 6.95±0.50 | reached the levels of full agonism | No effect | failed to induce CXCR3 mediated G protein activation | – |
| NC(N)=NCCC[C@H](NC(=O)[C@@H]1Cc2ccccc2CN1C(=O)CCC(=O)c1ccccc1)C(=O)NCC1CCCCC1 [PS372424] | – | – | – | – | – | – | – | – | – | found to antagonize CXCL11 induced migration |

Further lines, with some results ahead:

| Emax (CXCR3-PK2) [%] | CXCR3-PK2 pEC50 ± SEM (CXCR3-PK2) | Emax (CXCR3; [1]) [%] | CXCR3 pEC50 ± SEM (CXCR3; [2]) | Emax (CXCR3-PK1) [%] | CXCR3-PK1 pEC50 ± SEM (CXCR3-PK1) | β-arrestin 2 recruitment agonism using PK2 tag (result in words) (CXCR3-PK2) | CXCR3 Efficacy (%) ± SEM (CXCR3; [1]) | SMILES | CXCR3 mediated G protein activation (result in words) (CXCR3; [35S]GTPγS incorporation) | influence on CXCL11 induced migration in activated T-cells (activated T-cells) |
| --- | --- | --- | --- | --- | --- | --- | --- | --- | --- | --- |
| 79 | 6.52±0.43 | 25 ± 4 | 8.01±0.31 | 28 | 7.16±0.33 | – | – | N[C@H](CCCCNC(=O)[C@@H]1Cc2ccccc2CN1C(=O)CCC(=O)c1ccccc1)C(=O)NCC(c1ccccc1)c1ccccc1.O=C(O)C(F)(F)F [Compound 35, (R)-1-((2,2-diphenylethyl)amino)-1-oxo-6-((S)-2-(4-oxo-4-phenylbutanoyl)-1,2,3,4-tetrahydroisoquinoline-3-carboxamido)hexan-2-aminium 2,2,2-trifluoroacetate] | – | – |
| 30 | 7.23±0.69 | 33 ± 7 | 5.97±0.34 | ~36 | 6.63±0.17 | – | – | CC(C)(C)OC(=O)NCCCC[C@@H](NC(=O)[C@@H]1Cc2ccccc2CN1C(=O)CCC(=O)c1ccccc1)C(=O)NCC(c1ccccc1)c1ccccc1 [Compound 45, Tert-butyl ((R)-6-((2,2-diphenylethyl)amino)-6-oxo-5-((S)-2-(4-oxo-4-phenylbutanoyl)-1,2,3,4-tetrahydroisoquinoline-3-carboxamido)hexyl)carbamate] | – | – |
| 198 | 6.12±0.11 | 85 ± 5 | 5.94±0.09 | 108 | 5.96±0.08 | – | – | NCCCC[C@@H](NC(=O)[C@@H]1Cc2ccccc2CN1C(=O)CCC(=O)c1ccccc1)C(=O)NCC(c1ccccc1)c1ccccc1.O=C(O)C(F)(F)F [Compound 47, (R)-6-((2,2-diphenylethyl)amino)-6-oxo-5-((S)-2-(4-oxo-4-phenylbutanoyl)-1,2,3,4-tetrahydroisoquinoline-3-carboxamido)hexan-1-aminium 2,2,2-trifluoroacetate] | – | – |
